# According to PubChem BioAssay (NCI):
#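 Where inhibition never reached the appropriate level, the endpoint shown equals the highest concentration tested. Otherwise, values were interpolated linearly from a five-concentration, 48-hour dose response in 96-well plates. Here, GI50 denotes the concentration required for 50% inhibition of growth. TGI is the concentration that stops growth completely.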
# Experiments:
# Assay in all cases: NCI-60 cell line screen, 48 h
# SNB-19 CNS = tested on: SNB-19 CNS
# TK-10 renal = tested on: TK-10 renal
# MDA-MB-435 = tested on: MDA-MB-435
# SF-268 CNS = tested on: SF-268 CNS
# PC-3 prostate = tested on: PC-3 prostate
# SR leukemia = tested on: SR leukemia
# RPMI-8226 leukemia = tested on: RPMI-8226 leukemia
# RXF 393 renal = tested on: RXF 393 renal
SMILES,TGI (SNB-19 CNS) [µM],TGI (TK-10 renal) [µM],TGI (MDA-MB-435) [µM],TGI (SF-268 CNS) [µM],TGI (PC-3 prostate) [µM],TGI (SR leukemia) [µM],TGI (RPMI-8226 leukemia) [µM],TGI (RXF 393 renal) [µM],GI50 (SNB-19 CNS) [µM],GI50 (MDA-MB-435) [µM],GI50 (PC-3 prostate) [µM],GI50 (RXF 393 renal) [µM]
O=[N+]([O-])c1ccc(NN=C2CN3CCN(C2)c2ccccc23)c([N+](=O)[O-])c1,> 100,> 100,> 100,> 100,> 100,> 100,,,,,,
COC(C/C(=C/CO[Si](C(C)C)(C(C)C)C(C)C)C(=O)N(COCC[Si](C)(C)C)c1ccccc1I)OC,> 100,> 100,29.1,,83.6,> 100,> 100,,,,,
COC(=O)[C@H](Cc1c[nH]c2ccccc12)NP(=O)(OCCC#N)OCC1OC(n2cc(C)c(=O)[nH]c2=O)CC1N=[N+]=[N-] (stereo partly drawn),> 100,> 100,> 100,> 100,> 100,,> 100,> 100,,,,
Cc1nc2cc(F)c(F)cc2[nH]c1=O,> 100,> 100,> 100,> 100,> 100,,> 100,> 100,,,,
O=c1c2cc(C(F)(F)F)ccc2sc2c(NCCCNCCO)nc3ccccc3c12,3.1,,3.04,,3.24,,,2.82,1.65,1.62,1.69,1.4
CC1CC/C(=C\c2ccc(F)cc2)C2=C1C(c1ccc(F)cc1)N1C(=O)CSC1=N2 (stereo not drawn),> 100,> 100,> 100,> 100,> 100,,> 100,> 100,,,,
O=C1COc2cc(N3CCN(c4cccc(C(F)(F)F)c4)CC3)ccc2N1,> 100,> 100,> 100,> 100,> 100,> 100,> 100,,,,,
N#Cc1nc2cc(Cl)ccc2nc1N1CCN(c2ccc([N+](=O)[O-])cc2)CC1,> 100,> 100,> 100,> 100,> 100,,> 100,> 100,,,,
Clc1sc(Cl)c2c1[C@@H](Cl)C[C@@H]2Cl,,> 100,> 100,> 100,,> 100,,,,,,
NCCCN(CCCCN(CCCN)C(=O)OCc1ccccc1)C(=O)OCc1ccccc1,> 100,> 100,> 100,> 100,> 100,,> 100,> 100,,,,
CCc1cccc2c3c([nH]c12)-c1ccccc1NC(=O)C3,> 100,> 100,> 100,> 100,,,> 100,,,,,
O=C(COc1ccc(OCC(=O)N2C(=O)CC(=O)N(c3ccc(Cl)cc3)C2=S)cc1)N1C(=O)CC(=O)N(c2ccc(Cl)cc2)C1=S,> 100,> 100,> 100,> 100,> 100,,> 100,83.1,,,,
Cc1cc2[nH]c3c(C#N)c(-c4ccccc4)c(N=Nc4ccc(F)cc4)c(=O)n3c2cc1C,> 100,> 100,> 100,> 100,> 100,,> 100,> 100,,,,
COc1cc2ccc(C(=O)NCCCNC(=O)c3ccc4cc(OC)c(OC)cc4c3)cc2cc1OC,> 100,> 100,> 100,> 100,> 100,> 100,,,,,,
Cc1ccc(S(=O)(=O)NC(=O)NC(Cc2ccc(O)cc2)C(=O)O)cc1 (stereo not drawn),> 100,> 100,,> 100,> 100,> 100,> 100,> 100,,,,
C#CC(O)(c1nc2ccccc2s1)c1nc2ccccc2s1,> 100,> 100,87.6,> 100,64.7,,76.8,89.7,,,,
CNc1nnc(CCCCCCCCc2nnc(NC)o2)o1,> 100,> 100,> 100,,> 100,,,> 100,,,,
C#C[C@]1(O)CC[C@H]2[C@@H]3CCC4=C/C(=N/NC(=O)c5cccc6c(=O)c7ccccc7[nH]c56)CCC4[C@H]3CC[C@@]21C (stereo partly drawn),> 100,> 100,> 100,> 100,> 100,> 100,> 100,,,,,
O=C1NC(=O)c2ccccc2/C1=C/c1ccc2c(c1)OCO2,> 100,> 100,50.1,82.1,,> 100,74.3,17.4,,,,
COc1ccc(C2C3=C(N=C4SC(C(C)=O)=C(C)N42)c2ccccc2CC3)cc1 (stereo not drawn),> 100,,> 100,> 100,> 100,,29.9,> 100,,,,
CSC(SC)=C(C#N)C(=O)Nc1cccc(Cl)c1,> 100,> 100,> 100,> 100,> 100,,,> 100,,,,
CN1/C(=C/C=C/C=C/C=C2C(=O)c3ccccc3C2=O)C(C)(C)c2ccccc21,> 100,> 100,> 100,> 100,,> 100,> 100,81.4,,,,
